What was measured:
S1P receptors = settings: transfected cells expressing individual S1P receptors; cited from earlier work
T cell = settings: cited from earlier work
[1] = tested on: neonatal DRG-SC co-cultures; assay: Myelination in neonatal DRG-SC co-cultures; format: cell-based
Text: TNF-α and IFN-γ (labeled as cytokines) acted synergistically to decrease cell viability via NOS induction and ceramide accumulation in immortalized SCs (FIG. 4) (Nagano et al., 2001). Neither cytokine alone induced cell death. These cytokines also exerted a synergistic inhibitory action on myelination in neonatal DRG-SC co-cultures, which is evident after 3 days of treatment.

B7-2 deficient NOD mice [2] = assay: Clinical scores and grip strength in spontaneous autoimmune polyneuropathy (SAP); format: in vivo, mouse
Protocol: (§1) Female B7-2 deficient NOD mice were used since they are more prone to develop SAP than their male counterparts (Salomon et al., supra). The mice were 7 months of age at the start of the study. Animals were given FTY720 (aqueous solution) at doses of 0.3 mg/kg or 1 mg/kg or vehicle alone by oral gavage once daily for 1 month. The concentrations were chosen based on dose-response studies with regard to the depletion of peripheral lymphocytes, and data from EAE studies in rats (Brinkmann et al., 2002; Fujino et al., 2003).
To determine the effect of FTY720 on clinical scores and grip strength of B7-2 deficient NOD mice, both qualitative and quantitative assessment was performed by blinded lab personnel. For qualitative assessment, a nominal scale (with 0 as normal and 5 as death) described by other investigators (Zhu et al., 2001a) was used. For quantitative assessment, hindlimb and forelimb strength was measured with a grip strength meter (Columbus Instruments). […] Similar results were observed when forelimb and hindlimb strength was assessed quantitatively.

B7-2 deficient NOD mice [3] = assay: Histological evaluation of inflammatory cell infiltration in sciatic nerve sections; format: in vivo, mouse; settings: 1.0 mg/kg; quantitative (p<0.02) and semi-quantitative (p<0.003) method; n=7
Protocol: as §1
To further evaluate the effect of FTY720 on B7-2 deficient NOD mice, histological evaluation was performed to assess inflammatory cell infiltration. […] For quantitative method, tissue areas were measured by image analysis and the number of inflammatory cells counted at ×20 magnification. The results were averaged and expressed as cells per mm^2 tissue section. For semi-quantitative method, inflammation was graded as: 1, a few scattered mononuclear inflammatory cells often subperineurial; 2, perivenular cuffing with mononuclear inflammatory cells (one or two foci); 3, extensive multifocal perivenular cuffing and widespread endoneurial inflammation.

B7-2 deficient NOD mice [4] = assay: Demyelination and loss of myelinated fibers in epon sections; format: in vivo, mouse; settings: 1.0 mg/kg, p<0.015, n=7
Protocol: as §1
Epon sections were prepared from vehicle-treated mice (n=6) and mice treated with 1.0 mg/kg FTY720 (n=7). […] These differences were statistically different with a p value of less than 0.015. The percentage of loss of myelinated fibers in epon sections was assessed by a blinded observer using a grid. Demyelination was graded as follows: 1, isolated demyelinated axons perivascular or scattered; 2, many foci of perivascular demyelination; 3, extensive demyelination, perivascular and confluent.

[5] = tested on: peripheral blood lymphocyte; assay: Induction of peripheral blood lymphopenia; format: in vivo, mouse
Protocol: as §1
The effectiveness of FTY720 was also monitored by the induction of peripheral blood lymphopenia. The peripheral blood lymphocyte count was decreased to 50-60% of vehicle-treated ones by FTY720 (0.3 mg/kg) (n=4) and to 25-30% by FTY720 (1 mg/kg) (n=3).

lymphocyte = settings: cited from earlier work
B7-2 deficient NOD mice [6] = assay: Electrophysiological studies of sciatic nerve function in vivo; parameters: species or system mouse; settings: FTY720 1 mg/kg oral gavage once daily for 1 month
Protocol: as §1
Electrophysiological studies were performed to assess the effect of FTY720 on sciatic nerve function in vivo in a subset of the study animals. […] FIG. 6 likewise illustrates that FTY720 treatment improves DL and CV (FIG. 6B, showing a summary of the results from experiments performed on 12 nerves from 6 water-treated mice and 14 nerves from 7 FTY720-treated mice) but not the amplitude of sciatic CMAPs (FIG. 6A).

medullary thymocytes = settings: cited from earlier work

CCCCCCCCc1ccc(CC[C@](N)(CO)COP(=O)(O)O)cc1 [FTY720-P]
agonist activity at S1P receptors (S1P receptors): potent agonist of S1P receptors with the exception of S1P2

CCCCCCCCCCCCC/C=C/[C@@H](O)[C@@H](N)COP(=O)(O)O [S1P, sphingosine 1-phosphate]
concentration that elicits T cell chemotaxis (T cell; high concentrations are inhibitory): ≤ 0.1 µM

IFN-γ: pro-inflammatory Th1 cytokine
effect on myelination ([1]; IFN-γ at 50-300 U/ml alone): No effect on myelination

CCCCCCCCc1ccc(CCC(N)(CO)CO)cc1 [FTY720, 2-amino-2-[2-(4-octylphenyl)ethyl]-1,3-propanediol]
difference in clinical score between 7 months and 8 months (B7-2 deficient NOD mice [2]; 0.3 mg/kg oral once daily for 1 month, p less than 0.03, n=5): statistically significant | forelimb and hindlimb grip strength vs vehicle or 0.3 mg/kg (B7-2 deficient NOD mice [2]; 1.0 mg/kg oral once daily for 1 month, grip strength meter): increased grip strength | clinical scores, month 7 vs month 8 (B7-2 deficient NOD mice [2]; 1.0 mg/kg oral once daily for 1 month, scale 0 normal to 5 death, n=10): did not increase between month 7 and month 8 | inflammatory cell infiltration vs water-treated mice (B7-2 deficient NOD mice [3]): decreased inflammatory cell infiltration | T cell chemotactic activity (T cell): lacks T cell chemotactic activity | percentage of myelinated fibers lost vs vehicle (B7-2 deficient NOD mice [4]): decrease in the percentage of myelinated fibers lost | peripheral blood lymphocyte count, % of vehicle-treated ([5]; 0.3 mg/kg oral once daily, n=4): 50-60% | peripheral blood lymphocyte count, % of vehicle-treated ([5]; 1 mg/kg oral once daily, n=3): 25-30% | concentration that elicits lymphocyte apoptosis (lymphocyte): > 3 µM | Distal Latency (B7-2 deficient NOD mice [6]; sciatic nerve, vehicle 2.59 ± 0.3, p < 0.02): 1.58 ± 0.3 ms | Conduction Velocity (B7-2 deficient NOD mice [6]; sciatic nerve, vehicle 14.7 ± 3.0, p < 0.01): 22.8 ± 3.2 m/s | Amplitude of sciatic CMAPs (B7-2 deficient NOD mice [6]; vehicle 3.75 ± 1.8): 3.8 ± 0.7 mV

TNF-α
effect on myelination ([1]; TNF-α 10 ng/ml alone): No effect on myelination | effect on myelination ([1]; TNF-α 100 ng/ml alone): modest inhibitory action

CCCCCCCOc1ccc(CC[C@@](C)(N)CO)cc1 [AAL(R)]
time to downregulation of CD69 (medullary thymocytes): ≤ 2 h
